Assay results as given in patent US9868707B2, “Small molecule agonists of neurotensin receptor 1” (SANFORD-BURNHAM MEDICAL RESEARCH INSTITUTE, priority 2012, dated 2018).
Read-outs that look alike come from different tables or passages of the source.

Biological target: NTR1 (Homo sapiens, UniProt P30989)
Assay: NTR1 high-content imaging (HCS) dose response, NTR1-U2OS cells
Type: cell-based
Set-up: host or cells: U2OS osteosarcoma
Details: n = 4 unless otherwise noted; for EC50: Ave. ± S.E.M., read-out: HCS NTR1 Potency EC50
Text: The cell lines utilized in the high-content imaging assays, which include the NTR1-, NTR2-, and GPR35-U2OS osteosarcomas, were obtained from the laboratory of Dr. Lawrence Barak at the Duke University Medical Center. The media used in the culture of the cell lines, as well as the assays themselves, consisted of Minimum Essential Medium (15-010-CM) and L-glutamine (25-005-CL) from Cellgro/Mediatech (Manassas, Va.), fetal bovine serum (SH30396.03) from Hyclone (Logan, Utah), penicillin-streptomycin solution (PS-20) from Omega Scientific in Tarzana, Calif., G418 (ant-gn-1) from Invivogen (San Diego, Calif.), and zeocin (R250-01) from Invitrogen (Carlsbad, Calif.). Cell lines were cultured in T225 tissue culture flasks (431082) supplied by Corning (Corning, N.Y.). Additional reagents employed include Dulbecco's Phosphate-Buffered Saline (DPBS) (21-031CV) from Cellgro/Mediatech, Trypsin-EDTA 0.05% (25300) from Invitrogen, paraformaldehyde (30528954) from Acros Organics (Geel, Belgium), Hoechst 33342 (H3570) from Invitrogen. The high-content assays were run in 1536-well plates (29326) supplied by Aurora Biotechnology (Poway, Calif.) and utilized aluminum plate seals (T592100) from E&K Scientific (Santa Clara, Calif.).
The neurotensin 1 peptide (N6383) from Sigma-Aldrich (St. Louis, Mo.) was used as a positive control in the NTR1 primary HCS assay. For the NTR2 selectivity assay, the non-specific, small molecule 3-(4-fluorophenyl)-7,8-dimethoxy-5-(4-methylbenzyl)-5H-pyrazolo[4,3-c]quinolone which was synthesized internally was used as a positive control. The GPR35 selectivity screen utilized zaprinast (ALX430-020-M010) from Alexis Biochemicals (Farmingdale, N.Y.) as a control.
The high-content imaging based NTR1 primary screen in 1536-well format was utilized to assay the MLSMR library of chemical entities in the following manner. On day one, 4 uL of a cell suspension containing 350,000 NTR1-U2OS cells per mL is added to each well of a 1536-well assay plate. Cells are plated in MEM medium containing 2.5% Fetal Bovine Serum, 1% Penicillin/Streptomycin solution, 1% L-Glutamine, 400 ug/mL G418, and 200 ug/mL Zeocin. The assay plates are then incubated overnight at 37° C., under 5% CO2. Following the overnight incubation, a volume of 60 nL of the compounds at 2 mM in DMSO (final 20 μM, 1% DMSO) was transferred to columns 5-48 of the assay plates using a LabCyte Echo Liquid Handler. Next, 60 nL of DMSO were dispensed to columns 1-4, which served as the positive and neutral control wells. […] The assay plates were centrifuged on an Eppendorf 5810 centrifuge at 1000 rpm for 1 min to ensure even liquid levels in the wells of the assay plates. The assay plates were then returned to the incubator for 1 hour. Following the hour-long incubation at 37° C., the cells in each well were fixed with 4 uL of 6% paraformaldehyde added with a Multidrop Combi. The assay plates were centrifuged as before and incubated at room temperature for 1 hour. On the Kalypsys, plates were then aspirated down to 2.5 uL per well and washed twice with 11 uL per well of DPBS, followed by a final aspiration to 2.5 uL per well. On the Combi dispenser, 5 uL of 5 ug/mL Hoechst 33342 diluted in DPBS was added to each well of assay plates. The plates were again centrifuged as previously described, sealed, and incubated for at least 1 hour prior to being loaded on a PerkinElmer Opera QEHS.
Image acquisition was performed with a 45 plate capacity loader/stacker and the following settings: 40×0.6 NA air objective, acquisition camera set to 2-by-2 binning for an image size of 688 by 512 pixels, beta-arrestin-GFP acquired using 488 nm laser excitation and 540/75 nm emission filters, DAPI (nuclei) using 365 nm Xenon lamp excitation and 450/50 nm emission filters, 3 fields per well. Image analysis was performed using the Acapella Spot Detection Algorithm. For analysis settings and the metrics employed in the data analyses, please refer to supplemental information.

[1] = read-out: HCS NTR1 Potency Emax

Sequence of NTR1 (P30989 whole entry, species assumed): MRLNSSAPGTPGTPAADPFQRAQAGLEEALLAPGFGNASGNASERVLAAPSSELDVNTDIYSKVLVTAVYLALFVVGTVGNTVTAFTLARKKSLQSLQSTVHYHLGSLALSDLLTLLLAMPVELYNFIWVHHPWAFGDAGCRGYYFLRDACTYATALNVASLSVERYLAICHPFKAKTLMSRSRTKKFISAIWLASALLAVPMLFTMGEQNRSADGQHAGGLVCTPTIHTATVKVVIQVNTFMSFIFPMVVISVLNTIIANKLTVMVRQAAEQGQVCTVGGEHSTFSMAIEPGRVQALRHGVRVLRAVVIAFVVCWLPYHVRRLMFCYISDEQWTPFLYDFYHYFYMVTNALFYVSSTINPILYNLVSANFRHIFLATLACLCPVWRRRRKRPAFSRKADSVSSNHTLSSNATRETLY

## COc1cc2nc(-c3ccccc3)nc(N3CCN(c4ccccc4OC)CC3)c2cc1OC [6,7-di-OMe; phenyl; 2-OMe, 2-phenyl-6,7-dimethoxy-4-(4-(2-methoxyphenyl)piperazin-1-yl)quinazoline]
  EC50: 20 ± 10.7 µM
[1]
  Emax: 78%

## COc1cc2nc(-c3ccccc3)nc(N3CCN(c4ccc(F)cc4)CC3)c2cc1OC [6,7-di-OMe; phenyl; 4-F, 2-phenyl-6,7-dimethoxy-4-(4-(4-fluorophenyl)piperazin-1-yl)quinazoline]
  EC50: > 80 µM

## COc1cc2nc(Cc3ccccc3)nc(N3CCN(c4ccccc4OC)CC3)c2cc1OC [Compound 309, 2-benzyl-6,7-dimethoxy-4-(4-(2-methoxyphenyl)piperazin-1-yl)quinazoline]
  EC50: 13.8 ± 3.4 µM
[1]
  Emax: 81.9%

## CCc1nc(N2CCN(c3ccccc3OC)CC2)c2cc(OC)c(OC)cc2n1 [Compound 310, 2-ethyl-6,7-dimethoxy-4-(4-(2-methoxyphenyl)piperazin-1-yl)quinazoline]
  EC50: 42.6 ± 4.4 µM
[1]
  Emax: 100%

## CCCc1nc(N2CCN(c3ccccc3OC)CC2)c2cc(OC)c(OC)cc2n1 [Compound 311, 6,7-dimethoxy-4-(4-(2-methoxyphenyl)piperazin-1-yl)-2-propylquinazoline]
  EC50: 16.6 ± 1.7 µM
[1]
  Emax: 100%

## COc1cc2nc(C(C)C)nc(N3CCN(c4ccccc4OC)CC3)c2cc1OC [Compound 312, 2-isopropyl-6,7-dimethoxy-4-(4-(2-methoxyphenyl)piperazin-1-yl)quinazoline]
  EC50: 7.7 ± 1 µM
[1]
  Emax: 100%

## COc1cc2nc(CC(C)C)nc(N3CCN(c4ccccc4OC)CC3)c2cc1OC [Compound 313, 2-isobutyl-6,7-dimethoxy-4-(4-(2-methoxyphenyl)piperazin-1-yl)quinazoline]
  EC50: 15.1 ± 1.5 µM
[1]
  Emax: 96.3%

## C=Cc1nc(N2CCN(c3ccccc3OC)CC2)c2cc(OC)c(OC)cc2n1 [Compound 314, 6,7-dimethoxy-4-(4-(2-methoxyphenyl)piperazin-1-yl)-2-vinylquinazoline]
  EC50: 7 ± 1 µM
[1]
  Emax: 100%

## COc1cc2nc(C3CCCC3)nc(N3CCN(c4ccccc4OC)CC3)c2cc1OC [Compound 316, 2-cyclopentyl-6,7-dimethoxy-4-(4-(2-methoxyphenyl)piperazin-1-yl)quinazoline]
  EC50: 5.8 ± 1.5 µM
[1]
  Emax: 92.8%

## COc1cc2nc(CC3CC3)nc(N3CCN(c4ccccc4OC)CC3)c2cc1OC [Compound 317, 2-(cyclopropylmethyl)-6,7-dimethoxy-4-(4-(2-methoxyphenyl)piperazin-1-yl)quinazoline]
  EC50: 14.2 ± 1.2 µM
[1]
  Emax: 96.9%

## COc1cc2nc(CCN3CCN(c4ccccc4OC)CC3)nc(N3CCN(c4ccccc4OC)CC3)c2cc1OC [Compound 319, 6,7-dimethoxy-4-(4-(2-methoxyphenyl)piperazin-1-yl)-2-(2-(4-(2-methoxyphenyl)piperazin-1-yl)ethyl)quinazoline]
  EC50: 25.9 ± 13.7 µM
[1]
  Emax: 74.3%

## COc1cc2nc(C3CCC3)nc(N3CCN(c4ccccc4C)CC3)c2cc1OC [Compound 323, 2-cyclobutyl-6,7-dimethoxy-4-(4-(o-tolyl)piperazin-1-yl)quinazoline]
  EC50: 14.9 ± 3.2 µM
heading: HCS NTR1 Potency Emax
  Emax: 91.6%

## COc1cc2nc(C3CCC3)nc(N3CCN(c4ccccc4F)CC3)c2cc1OC [Compound 324, 2-cyclobutyl-4-(4-(2-fluorophenyl)piperazin-1-yl)-6,7-dimethoxyquinazoline]
  EC50: 17.7 ± 1 µM
[1]
  Emax: 97.2%

## COc1cc2nc(C3CCC3)nc(N3CCN(c4ccccc4Cl)CC3)c2cc1OC [Compound 325, 4-(4-(2-chlorophenyl)piperazin-1-yl)-2-cyclobutyl-6,7-dimethoxyquinazoline]
  EC50: 12.2 ± 2.5 µM
[1]
  Emax: 70.5%

## COc1cc2nc(C3CCC3)nc(N3CCN(c4ccccn4)CC3)c2cc1OC [Compound 326, 2-cyclobutyl-6,7-dimethoxy-4-(4-(pyridin-2-yl)piperazin-1-yl)quinazoline]
  EC50: 25.5 ± 1.7 µM
[1]
  Emax: 91.4%

## COc1cc2nc(C3CCC3)nc(N3CCN(c4ccccc4[N+](=O)[O-])CC3)c2cc1OC [Compound 327, 2-cyclobutyl-6,7-dimethoxy-4-(4-(2-nitrophenyl)piperazin-1-yl)quinazoline]
  EC50: 75.4 ± 1.1 µM
[1]
  Emax: 100%

## COc1cccc(N2CCN(c3nc(C4CCC4)nc4cc(OC)c(OC)cc34)CC2)c1 [Compound 328, 2-cyclobutyl-6,7-dimethoxy-4-(4-(3-methoxyphenyl)piperazin-1-yl)quinazoline]
  EC50: 17.2 ± 1 µM
[1]
  Emax: 74.9%

## COc1ccc(N2CCN(c3nc(C4CCC4)nc4cc(OC)c(OC)cc34)CC2)cc1 [Compound 329, 2-cyclobutyl-6,7-dimethoxy-4-(4-(4-methoxyphenyl)piperazin-1-yl)quinazoline]
  EC50: 46.4 ± 17.6 µM
[1]
  Emax: 100%

## COc1ccc(N2CCN(c3nc(C4CCC4)nc4cc(OC)c(OC)cc34)CC2)c(OC)c1 [Compound 330, 2-cyclobutyl-4-(4-(2,4-dimethoxyphenyl)piperazin-1-yl)-6,7-dimethoxyquinazoline]
  EC50: 22.8 ± 0.4 µM
[1]
  Emax: 103%

## COc1cc2nc(C3CCC3)nc(N3CCN(c4c(C)cccc4C)CC3)c2cc1OC [Compound 331, 2-cyclobutyl-4-(4-(2,6-dimethylphenyl)piperazin-1-yl)-6,7-dimethoxyquinazoline]
  EC50: 61.2 ± 5.2 µM
[1]
  Emax: 100%

## COc1ccc2nc(C3CCC3)nc(N3CCN(c4ccccc4OC)CC3)c2c1 [Compound 334, 2-cyclobutyl-6-methoxy-4-(4-(2-methoxyphenyl)piperazin-1-yl)quinazoline]
  EC50: 10 ± 1.57 µM
[1]
  Emax: 102%

## COc1ccc2c(N3CCN(c4ccccc4OC)CC3)nc(C3CCC3)nc2c1 [Compound 335, 2-cyclobutyl-7-methoxy-4-(4-(2-methoxyphenyl)piperazin-1-yl)quinazoline]
  EC50: 30 µM
[1]
  Emax: 112%

## COc1ccccc1N1CCN(c2nc(C3CCC3)nc3ccccc23)CC1 [Compound 336, 2-cyclobutyl-4-(4-(2-methoxyphenyl)piperazin-1-yl)quinazoline]
  EC50: 22.6 ± 3.9 µM
[1]
  Emax: 100%

## COc1ccccc1N1CCN(c2nc(C3CCC3)nc3cc4c(cc23)OCO4)CC1 [Compound 337, 6-cyclobutyl-8-(4-(2-methoxyphenyl)piperazin-1-yl)-[1,3]dioxolo[4,5-g]quinazoline]
  EC50: 33.7 ± 16.7 µM
[1]
  Emax: 87%

## COc1ccc2nc(C3CC3)nc(N3CCN(c4ccccc4OC)CC3)c2c1 [Compound 338, 2-cyclopropyl-6-methoxy-4-(4-(2-methoxyphenyl)piperazin-1-yl)quinazoline]
  EC50: 4.1 ± 0.5 µM
[1]
  Emax: 95.7%

## CCOc1ccccc1N1CCN(c2nc(C3CC3)nc3cc(OC)c(OC)cc23)CC1 [Compound 339, 2-cyclopropyl-4-(4-(2-ethoxyphenyl)piperazin-1-yl)-6,7-dimethoxyquinazoline]
  EC50: 6.1 ± 0.4 µM
[1]
  Emax: 98.4%

## COc1cc2nc(C3CC3)nc(N3CCN(c4ccccc4Cl)CC3)c2cc1OC [Compound 340, 4-(4-(2-chlorophenyl)piperazin-1-yl)-2-cyclopropyl-6,7-dimethoxyquinazoline]
  EC50: 19.8 ± 2.2 µM
[1]
  Emax: 100%

## COc1cc2nc(C3CC3)nc(N3CCN(Cc4ccc(C)cc4)CC3)c2cc1OC [Compound 342, 2-cyclopropyl-6,7-dimethoxy-4-(4-(4-methylbenzyl)piperazin-1-yl)quinazoline]
  EC50: 25 ± 3.2 µM
